In the test the target is T1, TBK1 (Homo sapiens, UniProt Q9UHD2).
T1 construct: All protein kinases were of human origin and encoded full length proteins, unless indicated otherwise; His6; made in house; host or cells: insect Sf21 cells
T1 sequence (Q9UHD2 1-729): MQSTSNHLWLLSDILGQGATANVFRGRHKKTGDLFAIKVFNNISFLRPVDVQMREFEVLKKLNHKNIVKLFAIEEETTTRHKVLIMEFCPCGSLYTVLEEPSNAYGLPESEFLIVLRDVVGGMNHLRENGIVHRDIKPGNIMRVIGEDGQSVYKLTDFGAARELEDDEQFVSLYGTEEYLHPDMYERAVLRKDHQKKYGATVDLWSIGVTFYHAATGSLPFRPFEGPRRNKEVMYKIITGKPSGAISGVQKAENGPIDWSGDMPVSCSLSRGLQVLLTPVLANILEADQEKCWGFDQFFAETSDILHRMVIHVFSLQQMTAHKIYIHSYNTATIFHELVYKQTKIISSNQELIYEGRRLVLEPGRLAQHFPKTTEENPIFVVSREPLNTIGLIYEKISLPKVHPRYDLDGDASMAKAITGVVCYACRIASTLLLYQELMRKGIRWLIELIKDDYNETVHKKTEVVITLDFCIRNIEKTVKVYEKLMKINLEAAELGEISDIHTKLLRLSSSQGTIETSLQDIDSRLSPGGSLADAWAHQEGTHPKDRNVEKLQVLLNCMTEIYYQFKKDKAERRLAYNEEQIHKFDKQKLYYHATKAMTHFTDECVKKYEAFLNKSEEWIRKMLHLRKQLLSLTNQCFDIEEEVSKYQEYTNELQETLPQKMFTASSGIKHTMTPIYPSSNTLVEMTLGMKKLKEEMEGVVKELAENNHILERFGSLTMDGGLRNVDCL
Put plainly: TBK1 protein kinase assay ([γ-33P]ATP filter-plate, IC50 from 10 concentrations). The format is biochemical. Conditions: 50 μM ATP, peptide substrate 300 μM, 30 min, 21° C.; read-out: Potency score (TBK1 IC50). The source says: All protein kinases were of human origin and encoded full length proteins, unless indicated otherwise. They were either expressed as glutathione S-transferase (GST) fusion proteins in Escherichia Coli or as hexahistidine (His6)-tagged proteins in insect Sf21 cells. GST fusion proteins were purified by affinity chromatography on glutathione-Sepharose, and His6-tagged proteins on nickel/nitriloacetate-agarose. The procedures for expressing some of the protein kinases used herein have been detailed previously.^8,9 The following sections outline the DNA vectors synthesised and the procedures used to express and purifying protein kinases that have not been reported previously.
The following kinases were expressed in Sf21 cells: Aurora B and Aurora C, extra-cellular signal-regulated kinase 8 (ERK8), microtubule affinity regulating kinase 3 (MARK3), protein kinase Bα[118-480][S473D], protein kinase Bβ (PKBβ[120-481][S474D], 3-phosphoinositide-dependent protein kinase-1 [52-556] (PDK1[52-556], IKKε, TBK1,
All assays (25.5 μl) were carried out at room temperature (21° C.) and were linear with respect to time and enzyme concentration under the conditions used. Assays were performed for 30 min using Multidrop Micro reagent dispensers (Thermo Electron Corporation, Waltham, Mass. 02454, USA) in a 96-well format. The concentration of magnesium acetate in the assays was 10 mM and the [γ-33P] ATP (800 cpm/pmol) was used at 5, 20 or 50 μM as indicated, in order to be at or below the Km for ATP for each enzyme. Protein kinases assayed at 5 μM ATP were: ERK1, ERK8, PKBα, MARK3, Aurora C. Protein kinases assayed at 20 μM ATP were: JNK1, PDK1, CHK1, CHK2, CDK2 and Aurora B. Protein kinases assayed at 50 μM ATP were: MNK2, IKKepsilon and TBK1.
The assays were initiated with MgATP, stopped by addition of 5 μl of 0.5 M orthophosphoric acid and spotted on to P81 filterplates using a unifilter harvester (PerkinElmer, Boston, Mass. 02118, USA). The IC50 values of inhibitors were determined after carrying out assays at 10 different concentrations of each compound.
ERK1 and ERK8 were both assayed against myelin basic protein (MBP, 0.33 mg/ml). MARK3 was assayed against the peptide […] (300 μM), MNK2 against the eIF4E protein (0.5 mg/ml). PKBβ was assayed against the peptide GRPRTSSFAEGKK (30 μM). TBK1 were assayed against ([…]) (300 μM). The substrates used for other protein kinases were described previously.^8,9
Unless stated otherwise, enzymes were diluted in 50 mM Tris/HCl pH 7.5, 0.1 mM EGTA, 1 mg/ml BSA, 0.1% (v/v) 2-mercaptoethanol and assayed in 50 mM Tris/HCl pH 7.5, 0.1 mM EGTA, 0.1% (v/v) 2-mercaptoethanol.

Structures are written as SMILES. Bounds are passed on as bounds.

In the case of `O=C(NCCCn1ccc2cnc(Nc3cccc(CN4CCCCC4)c3)nc21)C1CCC1` [Example 49, Cyclobutanecarboxylic acid {3-[2-(3-piperidin-1-ylmethyl-phenylamino)-pyrrolo[2,3-d]pyrimidin-7-yl]-propyl}-amide], the IC50 was < 100 nM.
As for `O=C(NCCCn1ccc2cnc(Nc3ccc4ncccc4c3)nc21)C1CCC1` [Example 50, Cyclobutanecarboxylic acid {3-[2-(quinolin-6-ylamino)-pyrrolo[2,3-d]pyrimidin-7-yl]-propyl}-amide], the figure is < 100 nM; as for `CC(C)N1CCC(n2cc(Nc3ncc4ccn(CCCNC(=O)C5CCC5)c4n3)cn2)CC1` [Example 51, Cyclobutanecarboxylic acid (3-{2-[1-(1-isopropyl-piperidin-4-yl)-1H-pyrazol-4-ylamino]-pyrrolo[2,3-d]pyrimidin-7-yl}-propyl)-amide], < 100 nM.
Take `O=C(NCCCn1ccc2cnc(Nc3cccc(CN4CCOCC4)c3)nc21)C1CCC1` [Example 52, Cyclobutanecarboxylic acid {3-[2-(3-morpholin-4-ylmethyl-phenylamino)-pyrrolo[2,3-d]pyrimidin-7-yl]-propyl}-amide]: the 50% inhibitory concentration (IC50) was < 100 nM.
As for `CN1CCc2ccc(Nc3ncc4ccn(CCCNC(=O)C5CCC5)c4n3)cc2C1` [Example 53, Cyclobutanecarboxylic acid {3-[2-(2-methyl-1,2,3,4-tetrahydro-isoquinolin-7-ylamino)-pyrrolo[2,3-d]pyrimidin-7-yl]-propyl}-amide], the figure is < 100 nM; as for `O=C(NCCCn1ccc2cnc(Nc3ccc(-c4cnco4)cc3)nc21)C1CCC1` [Example 54, Cyclobutanecarboxylic acid {3-[2-(4-oxazol-5-yl-phenylamino)-pyrrolo[2,3-d]pyrimidin-7-yl]-propyl}-amide], < 100 nM; as for `CN1CCCN(c2ccc(Nc3ncc4ccn(CCCNC(=O)C5CCC5)c4n3)cn2)CC1` [Example 55, Cyclobutanecarboxylic acid (3-{2-[6-(4-methyl-perhydro-1,4-diazepin-1-yl)-pyridin-3-ylamino]-pyrrolo[2,3-d]pyrimidin-7-yl}-propyl)-amide], 100 to 1000 nM.
Take `CN1CCC(c2ccc(Nc3ncc4ccn(CCCNC(=O)C5CCC5)c4n3)cc2)CC1` [Example 56, Cyclobutanecarboxylic acid (3-{2-[4-(1-methyl-piperidin-4-yl)-phenylamino]-pyrrolo[2,3-d]pyrimidin-7-yl}-propyl]-amide]: the IC50 was < 100 nM.
Take `CN1CCC(O)(c2ccc(Nc3ncc4ccn(CCCNC(=O)C5CCC5)c4n3)cc2)CC1` [Example 57, Cyclobutanecarboxylic acid (3-{2-[4-(4-hydroxy-1-methyl-piperidin-4-yl)-phenylamino]-pyrrolo[2,3-d]pyrimidin-7-yl}-propyl)amide]: the IC50 was < 100 nM.
In the case of `COC1(c2ccc(Nc3ncc4ccn(CCCNC(=O)C5CCC5)c4n3)cc2)CCN(C)CC1` [Example 58, Cyclobutanecarboxylic acid (3-{2-[4-(4-methoxy-1-methyl-piperidin-4-yl)-phenylamino]-pyrrolo[2,3-d]pyrimidin-7-yl}-propyl)-amide], the IC50 was < 100 nM.
As for `CN1CCC(C#N)(c2ccc(Nc3ncc4ccn(CCCNC(=O)C5CCC5)c4n3)cc2)CC1` [Example 59, Cyclobutanecarboxylic acid (3-{2-[4-(4-cyano-1-methyl-piperidin-4-yl)-phenylamino]-pyrrolo[2,3-d]pyrimidin-7-yl}-propyl)-amide], the IC50 is < 100 nM.
As to `O=C(NCCCn1ccc2cnc(Nc3ccc(C4CCN(CCF)CC4)cc3)nc21)C1CCC1` [Example 60, Cyclobutanecarboxylic acid [3-(2-{4-[1-(2-fluoro-ethyl)-piperidin-4-yl]-phenylamino}-pyrrolo[2,3-d]pyrimidin-7-yl)-propyl]-amide], the IC50 is < 100 nM.

The record behind these values is patent publication US20120088753A1, “PYRROLOPYRIMIDINES AND USED AS KINASE INHIBITORS” (MEDICAL RESEARCH COUNCIL TECHNOLOGY, priority 2009, published 2012).
